The record followed here is patent publication US20240197711A1, “Combination Therapy for Cancer Treatment” (THE REGENTS OF THE UNIVERSITY OF MICHIGAN, priority 2021, published 2024).

Molecules are shown by their SMILES. Entries after “also recorded” stand apart in the source; their conditions may differ.

The subject of one series is xCT. The experiment in a line: Loss of EGFR-chaperoned transporter xCT from cells. In kind it is cell-based. As to conditions: along with EGFR. The text has this: (§1) It was reasoned that the activity seen in these susceptible tumor lines was largely due to EGFR KIFs. Tumors cells are always metabolically stressed, and in actual tumors poor circulation makes the stress even more severe on the tumor interior, which is usually hypoxic once the tumor has growth to more than 100 mm^3. […] As tumor cells try to run in […] glycolysis, they have a much larger glucose requirement than normal cells, and any hindrance of glucose import would be expected to stress cells, pushing them away from aerobic glycolysis, and towards oxidative phosphorylation to produce ATP, which in turn would almost certainly increase production of reactive oxygen intermediates (ROI) in these already abnormally metabolizing cells. The most common ways of disposing of ROI are via conjugation with glutathione, or reaction with various reducing enzymes, most of which rely on cysteine thiols for their RedOx ability. Both of these mechanisms require stressed cells to be able to import large amounts of cysteine, much of which is produced by the liver and put into circulation, as the high demand totally overwhelms endogenous cysteine biosynthesis (which requires methionine as its source of sulfur). […]

Series [1] relates to cells driven by mt-KRAS, mt-BRAF, and mt-EGFR. The series can be described thus: Oxidative stress in cells, hydrogen peroxide levels as marker. As to conditions: six hours post treatment. The format is cell-based. The text has this: Signs of oxidative stress in cells were investigated after addition of increasing amounts of Compound A with hydrogen peroxide levels being chosen as a marker of increased oxidative stress. […] Consideration was given to ways of exploiting oxidative stress in these tumor types. Oxidative stress both contributes towards causing DNA damage, and makes DNA damage more difficult to repair. So a combination of an ODDER (e.g., Compound A) with a DNA damaging agent, such as radiation, may result in useful therapeutic regimen. Compound A and radiation was examined in vivo xenograft experiments in mt-EGFR, mt-KRAS, and mt-BRAF driven tumors. […] Thus, it is believed that ODDER compounds, such as Compound A, can be used in combination with radiation to treat localized tumors which express either mutant KRAS or mutant BRAF. […] Other ODDER compounds are also expected to have similar lower on target toxicity.

Another series has as its target T1, EGFR (Homo sapiens, UniProt P00533).
T1 construct: they all coexpress wild-type (wt)—EGFR along with the KRAS or BRAF oncogene; endogenous in cells
The experiment in a line: Loss/depletion of EGFR from treated tumor cells. In kind it is cell-based. The text has this: However, binding of ODDERs to EGFR prevents activated EGFR from forming the stable molecular complexes required to protect them from being rapidly internalized and degraded by the normal cellular protein degradation mechanisms, which is exactly what these molecules were designed to do. […] The kinase catalytic domain then unbinds both the product, a tyrosyl phosphate monoester, and the byproduct ADP, and can then bind further ATP and substrate as the catalytic cycle continues. There appear to be two major uses for tyrosine phosphorylation in a substrate molecule. The first is that conformational changes in the substrate protein are often driven by the conversion of a neutral, somewhat hydrophobic, tyrosine side chain into a highly hydrophilic phosphotyrosine, with two negative charges at physiological pH. The second is that there are binding sites on many proteins for phosphotyrosine residues, which induce new protein-protein interactions for the substrate protein, frequently changing its cellular localization and/or allowing it to assemble into new multiprotein complexes, both of which can lead the substrate protein to show very different activities after phosphorylation. […] This recruits the intermediate proteins which lead to the activation of the before mentioned signaling cascades. […]

For series [2], the system named is tumors driven by mt-KRAS or mt-BRAF. The series can be described thus: NC160 Tumor Cell panel. The format is cell-based. To be noted: several tumors driven by mt-KRAS or mt-BRAF.
The test system of series [3] is osimertinib-resistant PC9 non-small cell lung cancer xenografts. The experiment in a line: PC9 xenograft, Compound A with or without radiation, tumor volume. In kind it is in vivo, mice. As for the experimental part:
(§2) Mice bearing locally advanced xenograft (PC9, RKO, or UMSCC74B) were treated with vehicle (control); daily oral gavage of Compound A (also referred to as DPI-503), radiation plus vehicle, or a combination of daily oral gavage of Compound A and radiation. Tumor volumes were measured using calipers at least three times a week.

The subject of series [4] is RKO BRAF V600E colorectal cancer tumors. The series can be described thus: RKO xenograft, Compound A with or without radiation, tumor volume. To be noted: mt-BRAF RKO, 100 mg/kg daily oral, 2 GY/day five days a week for 3 weeks. In kind it is in vivo, mice. As for the experimental part:
as §2

Series [5] relates to UMSCC74B KRAS G12D head and neck squamous cell carcinoma tumor. The series can be described thus: UMSCC74B xenograft, Compound A with or without radiation, tumor volume. The format is in vivo, mice. To be noted: mt-KRAS UMSCC74B; 30 mg/kg biw for 2 weeks oral; 2 GY/day five days a week for 3 weeks.
Series [6] in a line: On target toxicity compared with EGFR inhibitors.
A further series has as its system SGLT1. The experiment in a line: Loss of EGFR-chaperoned transporter SGLT1 from cells. In kind it is cell-based. As to conditions: along with EGFR.
From the text: as §1

T1 sequence (P00533 25-1210): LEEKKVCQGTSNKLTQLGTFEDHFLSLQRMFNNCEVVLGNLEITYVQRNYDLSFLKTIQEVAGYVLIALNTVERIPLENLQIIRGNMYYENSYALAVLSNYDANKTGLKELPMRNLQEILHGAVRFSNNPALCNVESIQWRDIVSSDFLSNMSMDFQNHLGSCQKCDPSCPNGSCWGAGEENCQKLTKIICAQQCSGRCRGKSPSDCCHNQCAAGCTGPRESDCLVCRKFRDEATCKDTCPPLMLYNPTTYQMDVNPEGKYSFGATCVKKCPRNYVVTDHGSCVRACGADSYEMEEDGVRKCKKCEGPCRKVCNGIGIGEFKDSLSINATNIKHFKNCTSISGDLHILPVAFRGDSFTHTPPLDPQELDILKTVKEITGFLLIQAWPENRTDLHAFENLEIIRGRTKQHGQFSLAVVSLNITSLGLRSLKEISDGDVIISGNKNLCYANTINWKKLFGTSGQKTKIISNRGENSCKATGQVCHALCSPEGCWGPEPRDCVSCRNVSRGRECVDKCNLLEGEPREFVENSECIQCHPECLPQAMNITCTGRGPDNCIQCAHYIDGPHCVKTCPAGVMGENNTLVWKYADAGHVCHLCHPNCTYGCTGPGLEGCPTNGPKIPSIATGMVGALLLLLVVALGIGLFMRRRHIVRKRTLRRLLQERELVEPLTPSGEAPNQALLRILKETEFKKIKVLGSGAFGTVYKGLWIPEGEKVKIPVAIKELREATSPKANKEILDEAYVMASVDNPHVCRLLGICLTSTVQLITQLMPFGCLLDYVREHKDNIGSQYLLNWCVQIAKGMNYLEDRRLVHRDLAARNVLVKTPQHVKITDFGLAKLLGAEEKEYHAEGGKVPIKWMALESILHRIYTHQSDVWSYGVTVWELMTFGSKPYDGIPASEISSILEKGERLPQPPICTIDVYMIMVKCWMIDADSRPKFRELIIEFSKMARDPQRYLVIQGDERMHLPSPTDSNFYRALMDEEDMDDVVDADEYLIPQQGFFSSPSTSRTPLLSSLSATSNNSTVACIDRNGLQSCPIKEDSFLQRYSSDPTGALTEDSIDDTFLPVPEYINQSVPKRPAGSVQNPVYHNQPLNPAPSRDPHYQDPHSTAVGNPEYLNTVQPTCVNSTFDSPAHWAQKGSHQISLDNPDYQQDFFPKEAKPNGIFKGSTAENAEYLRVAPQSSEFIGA

With `CN1CCC2(CC1)N=C(SCC(=O)Nc1cnc3ccccc3c1)C(c1ccc(Br)cc1)=N2` [Compound A], the “ablation of xCT transporter” value in the series with xCT is “ablated along with EGFR”. For the same compound, in [1] (increasing amounts of compound), the “H2O2 levels, dose dependence” value is recorded as “dose-dependent increase”. In addition, the “increase in cellular H2O2 levels” value in [1] (top dose tested) is on record as 2-4 fold. The “loss of EGFR from the cell surface” value on EGFR is given as “loss of EGFR from the cell surface”. In series [2], the anti-proliferative activity entry is “considerable anti-proliferative activity”. In [3] (Day 155, end of experiment, treatment group not named, presumably combination), the “active tumor by gross pathology or histochemistry” value is “active tumor could not be detected”. The “anti-tumor effect of Compound A combined with radiation (tumor volume)” value in series [3] (mt-EGFR PC9, 75 mg/kg five times a week for 3 weeks oral, 2 Gy/day five times a week for 3 weeks) is “unexpectedly exhibited efficacy; also recorded: strongly increased”; in series [4], “unexpectedly exhibited efficacy; also recorded: strongly increased”; in series [5], “unexpectedly exhibited efficacy; also recorded: strongly increased”. The on target toxicity result in series [6] is on record as “much less on target toxicity than EGFR inhibitors”. Besides, the “ablation of SGLT1 transporter” value in the series on SGLT1 is “ablated along with EGFR”.
